Columns and labels:
[1] = tested on: horseweed; test: Test C postemergence; format: in vivo, Erigeron canadensis; conditions: 10 days, 0 to 100 scale (0 no effect, 100 complete control)
Procedure, shortened: (§1)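 Test material, in non-phytotoxic solvent with surfactant, was sprayed on the soil directly after seeding (preemergence) or on young plants of 2–10 cm with one to two leaves (postemergence). Greenhouse, 10 days; 0–100 visual control scale.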

[2] = tested on: barnyardgrass; test: Test D flooded paddy test; format: in vivo, Echinochloa crus-galli; conditions: 250 g ai/ha, applied to paddy water, visual rating after 13 to 14 days, scale 0 to 100 (0 no effect, 100 complete control)
Procedure, shortened: (§2)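 Visual ratings from 0, meaning no effect, to 100, meaning complete control, were assigned against untreated controls 13 to 14 days after compounds were added to the floodwater of pots kept 3 cm deep, with plants at the 2-leaf stage.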

[3] = tested on: ragweed; test: Test C postemergence; format: in vivo, Ambrosia artemisiifolia; conditions: 10 days, 0 to 100 scale (0 no effect, 100 complete control)
Procedure, shortened: as §1

[4] = tested on: oat, wild; test: Test C postemergence; format: in vivo, Avena fatua; conditions: 10 days, 0 to 100 scale (0 no effect, 100 complete control)
Procedure, shortened: as §1

[5] = tested on: kochia; test: Test C preemergence; format: in vivo, Bassia scoparia
Procedure, shortened: as §1

[6] = tested on: rice; test: Test D flooded paddy test; format: in vivo, Oryza sativa; conditions: 250 g ai/ha, applied to paddy water, visual rating after 13 to 14 days, scale 0 to 100 (0 no effect, 100 complete control)
Procedure, shortened: as §2

[7] = tested on: barnyardgrass; test: Test C postemergence; format: in vivo, Echinochloa crusgalli; conditions: 10 days, 0 to 100 scale (0 no effect, 100 complete control)
Procedure, shortened: as §1

[8] = tested on: pigweed, palmer; test: Test C preemergence; format: in vivo, Amaranthus palmeri
Procedure, shortened: as §1

[9] = tested on: pigweed, palmer; test: Test C postemergence; format: in vivo, Amaranthus palmeri; conditions: 10 days, 0 to 100 scale (0 no effect, 100 complete control)
Procedure, shortened: as §1

[10] = tested on: foxtail, giant; test: Test C preemergence; format: in vivo, Setaria faberi
Excerpt: (§3) Seeds of plant species selected from barnyardgrass (Echinochloa crusgalli), blackgrass (Alopecurus myosuroides), corn (Zea mays), foxtail, giant (giant foxtail, Setaria faberi), green foxtail (Setaria viridis), goosegrass (Eleusine indica), kochia (Bassia scoparia), oat, wild (wild oat, Avena fatua), pigweed, palmer (palmer amaranth, palmer pigweed, Amaranthus palmeri), Pigweed, Redroot (redroot pigweed, Amaranthus retroflexus), ragweed (common ragweed, Ambrosia artemisiifolia), ryegrass, Italian ([…] ryegrass, Lolium multiflorum), soybean (Glycine max), and wheat (Triticum aestivum) were planted into a blend of loam soil and sand and treated preemergence with a directed soil spray using test chemicals formulated in a non-phytotoxic solvent mixture which included a surfactant. At the same time, plants selected from these crops and weed species and also galium (catchweed bedstraw, Galium aparine) and horseweed (Erigeron canadensis) were planted in pots containing the same blend of loam soil and sand and treated with postemergence applications of test chemicals formulated in the same manner. Plants ranged in height from 2 to 10 cm and were in the one- to two-leaf stage for the postemergence treatment. Treated plants and untreated controls were maintained in a greenhouse for 10 days, after which time all treated plants were compared to untreated controls and visually evaluated for injury. Plant response ratings, summarized in Table C, are based on a 0 to 100 scale where 0 is no effect and 100 is complete control. A dash (-) response means no test result.

[11] = tested on: ryegrass, Italian; test: Test C preemergence; format: in vivo, Lolium multiflorum
Procedure, shortened: as §1

[12] = tested on: soybean; test: Test C postemergence; format: in vivo, Glycine max; conditions: 10 days, 0 to 100 scale (0 no effect, 100 complete control)
Procedure, shortened: as §1

[13] = tested on: galium; test: Test C postemergence; format: in vivo, Galium aparine; conditions: 10 days, 0 to 100 scale (0 no effect, 100 complete control)
Procedure, shortened: as §1

[14] = tested on: soybean; test: Test C preemergence; format: in vivo, Glycine max
Procedure, shortened: as §1

[15] = tested on: ducksalad; test: Test D flooded paddy test; format: in vivo, Heteranthera limosa; conditions: 250 g ai/ha, applied to paddy water, visual rating after 13 to 14 days, scale 0 to 100 (0 no effect, 100 complete control)
Procedure, shortened: as §2

[16] = tested on: barnyardgrass; test: Test C preemergence; format: in vivo, Echinochloa crusgalli
Procedure, shortened: as §1

[17] = tested on: oat, wild; test: Test C preemergence; format: in vivo, Avena fatua
Procedure, shortened: as §1

[18] = tested on: ryegrass, Italian; test: Test C postemergence; format: in vivo, Lolium multiflorum; conditions: 10 days, 0 to 100 scale (0 no effect, 100 complete control)
Procedure, shortened: as §1

[19] = tested on: sedge, umbrella; test: Test D flooded paddy test; format: in vivo, Cyperus difformis; conditions: 250 g ai/ha, applied to paddy water, visual rating after 13 to 14 days, scale 0 to 100 (0 no effect, 100 complete control)
Procedure, shortened: as §2

[20] = tested on: wheat; test: Test C preemergence; format: in vivo, Triticum aestivum
Procedure, shortened: as §1

[21] = tested on: foxtail, giant; test: Test C postemergence; format: in vivo, Setaria faberi; conditions: 10 days, 0 to 100 scale (0 no effect, 100 complete control)
Excerpt: as §3

[22] = tested on: blackgrass; test: Test C postemergence; format: in vivo, Alopecurus myosuroides; conditions: 10 days, 0 to 100 scale (0 no effect, 100 complete control)
Procedure, shortened: as §1

[23] = tested on: corn; test: Test C postemergence; format: in vivo, Zea mays; conditions: 10 days, 0 to 100 scale (0 no effect, 100 complete control)
Procedure, shortened: as §1

[24] = tested on: ragweed; test: Test C preemergence; format: in vivo, Ambrosia artemisiifolia
Procedure, shortened: as §1

[25] = tested on: blackgrass; test: Test C preemergence; format: in vivo, Alopecurus myosuroides
Procedure, shortened: as §1

[26] = tested on: kochia; test: Test C postemergence; format: in vivo, Bassia scoparia; conditions: 10 days, 0 to 100 scale (0 no effect, 100 complete control)
Procedure, shortened: as §1

[27] = tested on: wheat; test: Test C postemergence; format: in vivo, Triticum aestivum; conditions: 10 days, 0 to 100 scale (0 no effect, 100 complete control)
Procedure, shortened: as §1

[28] = 500 g ai/ha, preemergence, 0 to 100 scale (0 no effect, 100 complete control)
[29] = Preemergence, 125 g ai/ha, 0 to 100 scale, 0 no effect, 100 complete control

COc1ccc(-n2cnc(C3CCC3)n2)cc1C(=O)N1C[C@H](C)Oc2c(Cl)cccc21 [Compound 323]
Plant response rating, Horseweed ([1]; 500 g ai/ha, postemergence): 40
Plant response rating, Horseweed ([1]; Postemergence, 125 g ai/ha): 30
Plant response rating, Barnyardgrass (Flood) [2]: 30
Plant response rating, Ragweed ([3]; 500 g ai/ha, postemergence): 70
Plant response rating, Ragweed ([3]; Postemergence, 125 g ai/ha): 60
Plant response rating, Oat, Wild ([4]; 500 g ai/ha, postemergence): 20
Plant response rating, Oat, Wild ([4]; Postemergence, 125 g ai/ha): 20
Kochia plant response rating [5, 28]: 100
Plant response rating, Kochia [5, 29]: 90
Plant response rating, Rice (Flood) [6]: 0
Plant response rating, Barnyardgrass ([7]; 500 g ai/ha, postemergence): 60
Plant response rating, Barnyardgrass ([7]; Postemergence, 125 g ai/ha): 30
Pigweed, Palmer plant response rating [8, 28]: 100
Plant response rating, Pigweed, Palmer [8, 29]: 100
Plant response rating, Pigweed, Palmer ([9]; 500 g ai/ha, postemergence): 100
Plant response rating, Pigweed, Palmer ([9]; Postemergence, 125 g ai/ha): 80
Foxtail, Giant plant response rating [10, 28]: 100
Plant response rating, Foxtail, Giant [10, 29]: 90
Ryegrass, Italian plant response rating [11, 28]: 80
Plant response rating, Ryegrass, Italian [11, 29]: 70
Plant response rating, Soybean ([12]; 500 g ai/ha, postemergence): 100
Plant response rating, Soybean ([12]; Postemergence, 125 g ai/ha): 100
Plant response rating, Galium ([13]; 500 g ai/ha, postemergence): 100
Plant response rating, Galium ([13]; Postemergence, 125 g ai/ha): 100
Soybean plant response rating [14, 28]: 80
Plant response rating, Soybean [14, 29]: 50
Plant response rating, Ducksalad (Flood) [15]: 30
Barnyardgrass plant response rating [16, 28]: 100
Plant response rating, Barnyardgrass [16, 29]: 70
Oat, Wild plant response rating [17, 28]: 70
Plant response rating, Oat, Wild [17, 29]: 20
Plant response rating, Ryegrass, Italian ([18]; 500 g ai/ha, postemergence): 60
Plant response rating, Ryegrass, Italian ([18]; Postemergence, 125 g ai/ha): 10
Plant response rating, Sedge, Umbrella (Flood) [19]: 70
Wheat plant response rating [20, 28]: 80
Plant response rating, Wheat [20, 29]: 60
Plant response rating, Foxtail, Giant ([21]; 500 g ai/ha, postemergence): 90
Plant response rating, Foxtail, Giant ([21]; Postemergence, 125 g ai/ha): 20
Plant response rating, Blackgrass ([22]; 500 g ai/ha, postemergence): 90
Plant response rating, Blackgrass ([22]; Postemergence, 125 g ai/ha): 50
Plant response rating, Corn ([23]; 500 g ai/ha, postemergence): 50
Plant response rating, Corn ([23]; Postemergence, 125 g ai/ha): 10
Ragweed plant response rating [24, 28]: 100
Plant response rating, Ragweed [24, 29]: 30
Blackgrass plant response rating [25, 28]: 80
Plant response rating, Blackgrass [25, 29]: 70
Plant response rating, Kochia ([26]; 500 g ai/ha, postemergence): 90
Plant response rating, Kochia ([26]; Postemergence, 125 g ai/ha): 90
Plant response rating, Wheat ([27]; 500 g ai/ha, postemergence): 20
Plant response rating, Wheat ([27]; Postemergence, 125 g ai/ha): 20

— US20260262643A1, “HERBICIDAL BENZOXAZINES” (FMC CORPORATION, priority 2022, published 2026)
